Measured values published in patent US7858745B2, “Use of specifically engineered enzymes to enhance the efficacy of prodrugs” (The Board of Trustees of the University of Illinois, priority 2003, dated 2010).

What was measured:
[1] = tested on: HL60 cell line; experiment: Annexin V and propidium iodide (PI) staining of apoptotic cells, HL60; type: cell-based; conditions: after 96 hours; AraC at 1 μM
Experimental: (§1) The HuM195 antibody will only bind and internalize to cells expressing CD33. Thus, the HL60 cell line (derived from AML cells) and the NB4 cell line, which are CD33 positive, were used to test the activity of the HuM195-dCK system in live cells. The cells were treated with AraC, the HuM195-dCK conjugate, or the combination of HuM195-dCK and the AraC. Annexin V and propidium iodide (PI) staining was used to identify apoptotic cells.

[2] = tested on: NB4 cells; experiment: Apoptosis assay, NB4; type: cell-based; conditions: after 96 hours; AraC 250 nM
Experimental: as §1
The NB4 cells were also treated with AraC, the HuM195-dCK conjugate, or the combination of HuM195-dCK and the AraC, and an apoptosis assay was performed as above. The AraC dose used, however, was decreased from 1000 nM to 250 nM. The results were similar to those observed in the HL60 cells (FIG. 8). The conjugate with AraC (right bars) achieve ˜65% cell killing after 96 hours, whereas AraC alone was below 40%.

[3] = molecular target: dCK (Homo sapiens, UniProt P27707); conditions: versus cladribine; cited from earlier work
[4] = molecular target: T1, dNK (Drosophila melanogaster, UniProt Q9XZT6); conditions: dC phosphorylation; cited from earlier work
T1 sequence (Q9XZT6 1-250): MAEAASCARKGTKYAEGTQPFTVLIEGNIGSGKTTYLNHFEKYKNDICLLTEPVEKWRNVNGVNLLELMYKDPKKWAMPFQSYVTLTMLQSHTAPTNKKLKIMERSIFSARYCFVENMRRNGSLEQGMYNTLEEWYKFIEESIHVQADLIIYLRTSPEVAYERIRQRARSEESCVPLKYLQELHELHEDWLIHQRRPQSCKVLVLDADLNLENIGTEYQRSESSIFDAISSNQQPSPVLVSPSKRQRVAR

[5] = molecular target: Wild Type dCK (Homo sapiens, UniProt P27707); experiment: Steady-state kinetic assay of deoxycytidine kinase activity, wild type enzyme; conditions: prodrug versus dC
[6] = molecular target: A100V/R104M/D133A-dCK (Homo sapiens, UniProt P27707, A100V/D133A/R104M); experiment: Steady-state kinetic assay of deoxycytidine kinase activity, triple mutant enzyme
Experimental: Since Arg104 plays a role in the already mentioned active site hydrogen-bonding network, its mutation to the uncharged methionine was combined with the compensatory change of Asp133 to an alanine. […] In addition, Ala100 was changed to a valine as is found in dNK.
All experiments were performed in duplicates.

Sequence of Wild Type dCK (P27707 whole entry): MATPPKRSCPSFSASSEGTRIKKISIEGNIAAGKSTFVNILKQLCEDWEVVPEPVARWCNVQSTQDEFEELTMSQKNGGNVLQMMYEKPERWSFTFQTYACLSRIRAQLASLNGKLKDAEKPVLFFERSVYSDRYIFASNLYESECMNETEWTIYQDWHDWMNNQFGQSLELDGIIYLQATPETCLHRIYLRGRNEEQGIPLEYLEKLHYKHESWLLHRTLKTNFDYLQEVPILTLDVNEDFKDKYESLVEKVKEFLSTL
Sequence of A100V/R104M/D133A-dCK (P27707 whole entry A100V/R104M/D133A): as the sequence (P27707 whole entry) above, with A100V, R104M, D133A counted along it
Sequence of dCK (P27707 whole entry): as the sequence (P27707 whole entry) above

Structure (SMILES): Nc1ccn([C@@H]2O[C@H](CO)[C@@H](O)[C@@H]2O)c(=O)n1 [ara-C, 1-β-D-arabinofuranosylcytosine]
- cell death [1]: 50%
- cell killing [2]: below 40%

Structure (SMILES): Nc1nc(Cl)nc2c1ncn2[C@@H]1O[C@H](CO)[C@@H](O)[C@@H]1F [clofarabine, 2-chloro-2′-arabino-fluoro-2′-deoxyadenosine]
- more efficient substrate for dCK than cladribine [3]: ~3 fold

Structure (SMILES): Nc1ccn([C@H]2C[C@H](O)[C@@H](CO)O2)c(=O)n1 [dC, deoxycytidine]
- kcat [4]: 16.5 s⁻¹

Structure (SMILES): Nc1ccn([C@@H]2O[C@H](CO)[C@@H](O)C2(F)F)c(=O)n1 [gemcitabine, 2′,2′-difurodeoxycytidine]
- change in KM compared to dC [5]: slight increase
- higher enzymatic efficiency for dCK compared to dC [5]: ~4 fold
- increase in the kcat compared to dC [5]: 10 fold
- increase of efficiency of the triple mutant over wild type ([6]; triple mutant versus wild type dCK): ~4 fold

Structure (SMILES): Cc1cn([C@H]2C[C@H](O)[C@@H](CO)O2)c(=O)[nH]c1=O [thymidine]
- phosphorylation of thymidine by the dCK mutant ([6]; Arg104 to methionine, Asp133 to alanine): gained the ability to phosphorylate thymidine
